Measured values: patent US20250043299A1, “POINT MUTATIONS THAT BOOST AROMATIC AMINO ACID PRODUCTION AND CO2 ASSIMILATION IN PLANTS” (Wisconsin Alumni Research Foundation, priority 2021, published 2025)
Several values for one entry are separate records, joined by “and”; a condition that tells them apart may be missing. Equal values may be shown once.

Assays:
DHS3^G1 = assay: DHS enzyme assay, recombinant DHS3^G1; format: biochemical, Arabidopsis thaliana
Protocol: (§1) To generate DHS proteins with individual sota mutations via site-directed mutagenesis, these pET28a plasmid templates were diluted by 500-fold, mixed with 0.04 U/μL Phusion DNA polymerase (Thermo Scientific), 0.2 mM deoxynucleoside triphosphates (dNTPs), 1× Phusion reaction buffer (Thermo Scientific), and 0.5 μM forward and reverse mutagenesis primers (Table 10). The PCR reaction was run using the following protocol: 98° C. for 30 s followed by 20 cycles of 10 s at 98° C., 20 s at 70° C., 4.5 min at 72° C. with a final extension at 72° C. for 10 min. The PCR products were purified using a QIAquick Gel Extraction Kit (QIAGEN), treated with FastDigest DpnI (Thermo Scientific) to digest methylated plasmid template DNA for 20 min at 37° C., and transformed into E. coli cells. The mutagenized pET28a plasmids were sequenced to confirm that no errors were introduced during the mutagenesis process.
(§2) The DHS enzyme assays were conducted using the colorimetric method that we recently described (9). Briefly, the enzyme solution (7.7 μl) containing 50 mM Hepes (pH 7.4) was preincubated with an effector molecule(s) at room temperature for 15 min. For assays using recombinant protein and enzyme fractions isolated from plant leaves, 0.01 to 0.1 μg and approximately 50 μg of proteins were used, respectively. After adding 0.5 μl of 0.1 M dithiothreitol, the samples were further incubated at room temperature for 15 min. During these incubations, the substrate solution containing 50 mM Hepes (pH 7.4), 2 mM MnCl2, 4 mM E4P, and 4 mM PEP at final concentration was preheated at 37° C. The enzyme reaction was started by adding 6.8 μl of the substrate solution, then incubated at 37° C. for 30 min, and terminated by adding 30 μl of 0.6 M trichloroacetic acid. After a brief centrifugation, 5 μl of 200 mM NaIO4 (sodium meta-periodate) in 9 N H3PO4 was added to oxidize the enzymatic product and to incubate at 25° C. for 20 min. To stop the oxidation reaction, 20 μl of 0.75 M NaAsO2 (sodium arsenite), which was dissolved in 0.5 M Na2SO4 and 0.05 M H2SO4, was added and immediately mixed. […]

DHS3^H1 = assay: DHS enzyme assay, recombinant DHS3^H1; format: biochemical, Arabidopsis thaliana
Protocol: as §1, §2

DHS1^WT = target: T1, DHS1^WT (Arabidopsis thaliana, UniProt P29976); settings: AAAs, chorismate, caffeate: from Yokoyama et al., Plant Cell, 2021; cited from earlier work
T1 construct: without the predicted plastid transit peptide (amino acid residues; 49-525, 34-507, and 52-527, respectively); made in house; host or cells: E. coli Rosetta-2

[1] = target: T2, Arabidopsis thaliana DHS2 (SEQ ID NO:2) variant DHS2^A4 (sotaA4), G222S (Arabidopsis thaliana, UniProt Q00218, G222S); assay: Differential scanning fluorimetry protein-ligand affinity analysis, DHS2 sotaA4; format: binding; settings: ligand at 1 mM
T2 construct: without the predicted plastid transit peptide (amino acid residues; 49-525, 34-507, and 52-527, respectively); made in house; host or cells: E. coli
Protocol: (A) Simplified pathway map of AAAs and AAA-derived metabolites used in the effector screening. […] Data are means±SEM (n=3 independent assays).
To examine the impact of the sota mutations on the interaction between DHS and AAA effectors (FIG. 22), a differential scanning fluorimetry (DSF) analysis (48) was conducted using the recombinant DHS2^WT and DHS2^A4 proteins. […] The fluorescence signal was monitored during the stepwise increase in temperature (1° C. per minute from 25° C. to 95° C.). The Tm was calculated by nonlinear regression analysis using the Boltzmann sigmoidal equation (48).

DHS3^WT = assay: DHS enzyme assay, recombinant DHS3^WT; format: biochemical, Arabidopsis thaliana; settings: read-out: IC50 of effector molecule on DHS3^WT
Protocol: as §1
(§3) The DHS enzyme assays were conducted using the colorimetric method that we recently described (9). Briefly, the enzyme solution (7.7 μl) containing 50 mM Hepes (pH 7.4) was preincubated with an effector molecule(s) at room temperature for 15 min. For assays using recombinant protein and enzyme fractions isolated from plant leaves, 0.01 to 0.1 μg and approximately 50 μg of proteins were used, respectively. […]

[2] = target: T3, Arabidopsis thaliana DHS2 (AtDHS2), wild type (DHS2^WT), SEQ ID NO:2 (Arabidopsis thaliana, UniProt Q00218); assay: DHS enzyme assay with effector, Arabidopsis DHS2 WT; format: biochemical; settings: 4 mM E4P, 4 mM PEP, pH 7.4, 37° C.
T3 construct: without the predicted plastid transit peptide (amino acid residues; 49-525, 34-507, and 52-527, respectively); made in house; host or cells: E. coli Rosetta-2
Protocol: as §1, §3

[3] = target: T4, Arabidopsis thaliana DHS1 (AtDHS1), wild type (DHS1^WT), SEQ ID NO:1 (Arabidopsis thaliana, UniProt P29976); assay: DHS enzyme assay with effector, Arabidopsis DHS1 WT; format: biochemical; settings: DHS1^WT; 4 mM E4P, 4 mM PEP, pH 7.4, 37° C.
T4 construct: without the predicted plastid transit peptide (amino acid residues; 49-525, 34-507, and 52-527, respectively); made in house; host or cells: E. coli Rosetta-2
Protocol: as §1, §2

T3 sequence (Q00218 34-507): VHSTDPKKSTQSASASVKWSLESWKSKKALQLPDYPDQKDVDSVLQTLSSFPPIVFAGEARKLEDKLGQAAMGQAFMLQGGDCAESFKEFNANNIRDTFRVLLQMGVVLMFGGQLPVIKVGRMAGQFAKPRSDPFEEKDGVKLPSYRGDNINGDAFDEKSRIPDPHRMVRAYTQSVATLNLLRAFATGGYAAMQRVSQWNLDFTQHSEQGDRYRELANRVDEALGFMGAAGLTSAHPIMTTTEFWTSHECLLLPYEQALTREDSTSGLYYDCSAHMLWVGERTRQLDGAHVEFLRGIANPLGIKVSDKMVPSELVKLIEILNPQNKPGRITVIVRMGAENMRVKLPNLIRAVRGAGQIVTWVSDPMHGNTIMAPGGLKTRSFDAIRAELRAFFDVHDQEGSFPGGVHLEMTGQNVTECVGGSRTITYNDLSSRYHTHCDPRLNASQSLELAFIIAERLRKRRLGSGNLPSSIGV
T2 sequence (Q00218 34-507 G222S): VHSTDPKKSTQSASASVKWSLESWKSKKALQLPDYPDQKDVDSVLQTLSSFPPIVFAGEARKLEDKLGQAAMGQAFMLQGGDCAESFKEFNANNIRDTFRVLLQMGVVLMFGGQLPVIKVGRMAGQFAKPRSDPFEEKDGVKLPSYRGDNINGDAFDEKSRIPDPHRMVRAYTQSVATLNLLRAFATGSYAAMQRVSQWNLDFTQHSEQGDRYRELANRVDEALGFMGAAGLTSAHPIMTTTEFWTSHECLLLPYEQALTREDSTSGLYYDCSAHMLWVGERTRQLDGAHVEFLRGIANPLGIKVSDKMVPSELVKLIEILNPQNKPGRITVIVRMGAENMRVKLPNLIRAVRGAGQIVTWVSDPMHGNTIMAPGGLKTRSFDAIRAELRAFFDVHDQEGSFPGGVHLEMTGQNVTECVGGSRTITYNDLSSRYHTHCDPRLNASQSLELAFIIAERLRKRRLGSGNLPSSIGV
T4 sequence (P29976 49-525): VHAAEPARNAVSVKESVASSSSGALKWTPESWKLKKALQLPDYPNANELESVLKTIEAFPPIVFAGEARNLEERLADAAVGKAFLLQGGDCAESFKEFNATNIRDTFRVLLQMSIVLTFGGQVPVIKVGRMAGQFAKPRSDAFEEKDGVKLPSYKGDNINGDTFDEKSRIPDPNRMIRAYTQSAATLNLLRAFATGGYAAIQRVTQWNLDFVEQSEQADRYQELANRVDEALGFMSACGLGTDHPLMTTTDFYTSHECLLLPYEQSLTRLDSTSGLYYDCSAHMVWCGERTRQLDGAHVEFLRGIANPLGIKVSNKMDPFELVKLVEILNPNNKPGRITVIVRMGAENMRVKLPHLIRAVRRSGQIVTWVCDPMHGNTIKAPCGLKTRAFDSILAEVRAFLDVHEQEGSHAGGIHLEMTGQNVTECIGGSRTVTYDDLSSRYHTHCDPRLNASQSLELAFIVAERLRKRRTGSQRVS
T1 sequence (P29976 49-525): as above

## N[C@@H](Cc1c[nH]c2ccccc12)C(=O)O [Trp, tryptophan]
DHS3^G1
  IC50 of effector molecule on DHS3^G1: Not inhibited
DHS3^H1
  IC50 of effector molecule on DHS3^H1: Not inhibited
DHS1^WT
  IC50 of effector molecule on DHS1^WT: Not inhibited
[1]
  binding (DSF): still binds Tyr and Trp

## O=C(O)Cc1cc(O)ccc1O [HGA, homogentisate]
DHS3^G1; read-out: IC50 of effector molecule on DHS3^G1
  IC50: 375 µM
DHS3^WT
  IC50: 102 µM
DHS3^H1; read-out: IC50 of effector molecule on DHS3^H1
  IC50: 405 µM

## O=C(O)C(=O)Cc1ccc(O)cc1 [HPP, 4-Hydroxyphenylpyruvate]
DHS3^WT
  IC50: 516 µM
[2]
  IC50: 48.4 µM
[3]
  IC50: 305 µM

## O=C(O)C(=O)Cc1c[nH]c2ccccc12 [IPA, indole-3-pyruvate]
[2]
  IC50: 58 µM and 58.3 µM
